From US20250179017A1 (GUANGDONG NEWOPP BIOPHARMACEUTICALS CO., LTD., priority 2022, published 2025)

What was measured:
human EP2 (PTGER2) = target: T1, human EP2 (PTGER2) (Homo sapiens, UniProt P43116); test: EP2 antagonist assay (HEK-293 CNG membrane potential cAMP assay / 293T SEAP reporter assay, PGE2-stimulated); assay type: cell-based; conditions: EP2 antagonist activity; concentration for 50% inhibition of signal compared to DMSO
T1 construct: Cayman Chemical (Human EP2 Reporter Assay Kit)
How it was run: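 HEK-293 CNG cells expressing human EP2: compound preincubated 15 min at RT, then PGE2 at 5 nM final, 30 min; membrane-potential dye fluorescence (ex 530, em 590 nm), background-subtracted, gave IC50. Alternatively, 293T cells reverse-transfected with EP2 and CRE-SEAP, compound plus 13 nM PGE2 for 6-8 h, SEAP luminescence.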

human EP4 (EP4R) = target: T2, human EP4 (EP4R) (Homo sapiens, UniProt P35408); test: EP4 antagonist assay (HEK-293 CNG membrane potential cAMP assay / 293T SEAP reporter assay, PGE2-stimulated); assay type: cell-based; conditions: EP4 antagonist activity; concentration for inhibition of signal compared to DMSO
T2 construct: Cayman Chemical (Human EP4 Reporter Assay Kit)
Source text: 1. The HEK-293 CNG (Cyclic Nucleotide Gated) cell line expressing a modified CNG channel that leads to cell membrane depolarization in response to elevated intracellular cAMP levels, which can be measured using a fluorescent membrane potential dye, was engineered to express human EP2 (PTGER2) or EP4 (EP4R). The resulting cell line ACTOne™ PTGER2 or ACTOne™ EP4R as well as the fluorescent membrane potential dye were purchased from eEnzyme (Gaithersburg, MD, US) and used in this assay. Briefly, cells were plated at 1.2×10^4 cells/well in 20 μL DMEM supplemented with 2% Fetal Bovine Serum (FBS, VWR International), 1x Penicillin/Streptomycin (GenClone), 0.2 μg/mL puromycin (InvivoGen) and 50 μg/mL G418 (InvivoGen) on a 384 well plate (Greiner). The next day, cells were dye-loaded with 20 μL/well of 1x Dye-loading solution (eENZYME) following the manufacturer's instruction. After 2 hours of incubation at room temperature (RT) in the dark, a pre-read was made to obtain the background signals using CLARIOstar plate reader (BMG LABTECH, Germany) with the following filter settings: excitation=530/20 nm, emission=590/20 nm. Next, a serial dilution of compound (plus a DMSO control) were added to the plate (5 μL/well) and the reaction was incubated at RT for 15 min before adding 5 μL of PGE2 to every well for a final concentration of 5 nM. All wells were duplicated. The plate was then further incubated at RT for 30 min prior to a final read with the same machine settings. Background-subtracted signals were used to calculate IC50 values.
2. Human EP2 and EP4 Reporter Assay Kits were purchased from Cayman Chemical (Ann Arbor, MI, USA). The assay was performed following the provided User Manual. Briefly, a reverse transfection was performed by seeding 6.0×10^4 of 293T cells (ATCC) to each well of the provided Strip Plate coated with a proprietary transfection complex containing DNA constructs for expressing human EP2 or EP4 and a cAMP response element regulated secreted alkaline phosphatase (SEAP) reporter, in 200 μL DMEM supplemented with 2% FBS and incubated for 20-24 hours at 37° C. with 5% CO2. After the incubation, the culture medium was carefully removed, and the cells were replenished with 150 μL pre-warmed serum-free medium. PGE2 and test compounds were prepared together at 4x the desired final concentration, and 50 μL was added to each assigned well with the final concentration of 13 nM and 2 nM PGE2 for EP2 and EP4 assay, respectively. After 6-8 hours of incubation, 10 μL media from each well was transferred to corresponding well of a new plate, which was then sealed and incubated at 65° C. for 30 min. The plate was then cooled down to RT and 50 μL SEAP substrate was added to each well. Luminescence signal was measured using a CLARIOstar plate reader.
The IC50 value was determined as the concentration for […] inhibition of signal compared to DMSO (A: IC50≤100 nM; B: IC50 between 100 nM and 1,000 nM; C: IC50≥1,000 nM).

T1 sequence (P43116 whole entry): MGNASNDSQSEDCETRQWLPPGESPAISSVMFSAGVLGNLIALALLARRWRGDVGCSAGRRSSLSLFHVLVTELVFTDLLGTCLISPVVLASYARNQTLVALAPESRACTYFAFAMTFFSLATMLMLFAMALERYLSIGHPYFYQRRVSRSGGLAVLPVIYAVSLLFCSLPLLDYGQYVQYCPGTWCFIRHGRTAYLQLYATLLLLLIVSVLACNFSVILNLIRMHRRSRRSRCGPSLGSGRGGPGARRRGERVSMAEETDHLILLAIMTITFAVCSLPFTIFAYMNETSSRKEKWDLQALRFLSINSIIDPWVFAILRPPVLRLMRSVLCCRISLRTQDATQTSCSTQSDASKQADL
T2 sequence (P35408 whole entry): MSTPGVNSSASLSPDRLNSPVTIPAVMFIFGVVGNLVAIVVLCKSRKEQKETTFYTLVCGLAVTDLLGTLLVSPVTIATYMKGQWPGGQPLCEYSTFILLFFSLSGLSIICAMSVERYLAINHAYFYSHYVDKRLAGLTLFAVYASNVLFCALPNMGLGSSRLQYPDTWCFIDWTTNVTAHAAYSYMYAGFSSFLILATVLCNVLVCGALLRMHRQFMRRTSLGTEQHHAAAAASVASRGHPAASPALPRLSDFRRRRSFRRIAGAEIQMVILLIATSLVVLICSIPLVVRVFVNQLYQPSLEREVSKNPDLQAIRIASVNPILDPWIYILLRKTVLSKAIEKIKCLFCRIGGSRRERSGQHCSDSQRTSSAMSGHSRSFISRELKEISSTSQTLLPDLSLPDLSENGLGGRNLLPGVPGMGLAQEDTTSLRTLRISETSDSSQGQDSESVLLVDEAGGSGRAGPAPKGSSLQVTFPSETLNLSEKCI

| IC50 (human EP2 (PTGER2)) | IC50 (human EP4 (EP4R)) | SMILES |
| --- | --- | --- |
| < 100 nM | ≤ 100 nM | O=C(O)c1ccc(CNC(=O)c2cc(-c3ccccc3)cc3cnn(Cc4ccc(C(F)(F)F)cc4)c23)cc1 [Example 97, 4-((5-phenyl-1-(4-(trifluoromethyl)benzyl)-1H-indazole-7-carboxamido)methyl)benzoic acid] |
| < 100 nM | ≤ 100 nM | C[C@H](NC(=O)c1cc(-c2ccccc2)cc2ccn(Cc3cccc(C(F)(F)F)c3)c12)c1ccc(C(=O)O)cc1 [Example 129, (S)-4-(1-(5-phenyl-1-(3-(trifluoromethyl)benzyl)-1H-indole-7-carboxamido)ethyl)benzoic acid] |
| < 100 nM | ≤ 100 nM | O=C(O)c1ccc(CNC(=O)c2cc(-c3ccc(F)c(F)c3)cc3ccn(Cc4ccc(-c5ccccc5)cc4)c23)cc1 [Example 188, 4-((1-([1,1′-biphenyl]-4-ylmethyl)-5-(3,4-difluorophenyl)-1H-indole-7-carboxamido)methyl)benzoic acid] |
| < 100 nM | ≤ 100 nM | C[C@H](NC(=O)c1cc(-c2ccccc2)cc2nnn(Cc3ccc4ccccc4c3)c12)c1ccc(C(=O)O)cc1 [Example 189] |
| < 100 nM | ≤ 100 nM | C[C@H](NC(=O)c1ccc(Nc2ccccc2)c2ccn(Cc3ccc(C(F)(F)F)cc3)c12)c1ccc(C(=O)O)cc1 [Example 74, (S)-4-(1-(4-(phenylamino)-1-(4-(trifluoromethyl)benzyl)-1H-indole-7-carboxamido)ethyl)benzoic acid] |
